# Measurements reported in BindingDB's records for doi:10.1021/jm9901125 (Sapienza University of Rome, 2000).
# pIC50: −log10 of the molar value.
# Target: T1, Gag-Pol polyprotein [588-1027]/[588-1147] (Human immunodeficiency virus 1, UniProt P04585)
# T1 construct: 588-1027; 588-1147
# Assay: HIV-1 RT Assay
# Settings: pH 7.8; 37 °C
smiles,measurement,value
CCOC(=O)c1cc(C(C)O)cn1S(=O)(=O)c1cc(Cl)ccc1N (stereo unspecified) [ethyl 1-[(2-amino-5-chlorobenzene)sulfonyl]-4-(1-hydroxyethyl)-1H-pyrrole-2-carboxylate],pIC50,6.77
CC(C)OC(=O)c1cc(CNc2ccccc2)cn1S(=O)(=O)c1cc(Cl)ccc1N [propan-2-yl 1-[(2-amino-5-chlorobenzene)sulfonyl]-4-[(phenylamino)methyl]-1H-pyrrole-2-carboxylate],pIC50,6.52
CCOC(=O)c1cccn1S(=O)(=O)c1c(N)cccc1Cl [ethyl 1-[(2-amino-6-chlorobenzene)sulfonyl]-1H-pyrrole-2-carboxylate],pIC50,< 4.00
CCOC(=O)c1cc(C)cn1S(=O)(=O)c1cc(Cl)ccc1N [ethyl 1-[(2-amino-5-chlorobenzene)sulfonyl]-4-methyl-1H-pyrrole-2-carboxylate],pIC50,7.10
CC(C)OC(=O)c1cc(CO)cn1S(=O)(=O)c1cc(Cl)ccc1N [propan-2-yl 1-[(2-amino-5-chlorobenzene)sulfonyl]-4-(hydroxymethyl)-1H-pyrrole-2-carboxylate],pIC50,6.96
CCOC(=O)c1cc(CO)cn1S(=O)(=O)c1cc(Cl)ccc1N [ethyl 1-[(2-amino-5-chlorobenzene)sulfonyl]-4-(hydroxymethyl)-1H-pyrrole-2-carboxylate],pIC50,7.30
CCOC(=O)c1cc(COc2ccccc2)cn1S(=O)(=O)c1cc(Cl)ccc1N [ethyl 1-[(2-amino-5-chlorobenzene)sulfonyl]-4-(phenoxymethyl)-1H-pyrrole-2-carboxylate],pIC50,6.22
C=Cc1cc(C(=O)OCC)n(S(=O)(=O)c2cc(Cl)ccc2N)c1 [ethyl 1-[(2-amino-5-chlorobenzene)sulfonyl]-4-ethenyl-1H-pyrrole-2-carboxylate],pIC50,6.55
CCOC(=O)c1cc(COC)cn1S(=O)(=O)c1cc(Cl)ccc1N [ethyl 1-[(2-amino-5-chlorobenzene)sulfonyl]-4-(methoxymethyl)-1H-pyrrole-2-carboxylate],pIC50,6.22
CCOC(=O)c1cc(CNc2ccccc2)cn1S(=O)(=O)c1cc(Cl)ccc1N [ethyl 1-[(2-amino-5-chlorobenzene)sulfonyl]-4-[(phenylamino)methyl]-1H-pyrrole-2-carboxylate],pIC50,6.30
CCOC(=O)c1cccn1S(=O)(=O)c1cc(Cl)ccc1-n1cccc1 [Ethyl 1-{[5-Chloro-2-(1H-pyrrol-1-yl)phenyl]sulfonyl}-1H-pyrrole-2-carboxylate],pIC50,< 4.00
